We go through one molecule from US20240199555A1, “APPLICATIONS OF BIASED LIGANDS OF THE SEROTONIN 5-HT7 RECEPTOR FOR THE TREATMENT OF PAIN, MULTIPLE SCLEROSIS AND THE CONTROL OF THERMOREGULATION” (Centre National de la Recherche Scientifique, priority 2021, published 2024).

For one experiment, the system named is HEK-293 mock cells. The experiment is described as follows: Control in mock-transfected HEK-293 cells (cAMP, ERK phosphorylation). Format: cell-based, human. The procedure: ERK phosphorylation was monitored by western blotting after treatment of cells with 10 μM of ligands at different times ranging from 2 to 60 minutes. […] The kinetics of ERK phosphorylation elicited by 5-CT, Serodolin and MOA-51 were very similar: activation was fast and transient, and reached a pick between 2 and 7 minutes after drug exposure. However, ERK phosphorylation-induced by Serodolin and MOA-51 was more protracted compared to 5-CT, the reference agonist.

A further experiment concerns mice. Kind of experiment: Acetic acid-induced writhing test. Format: in vivo. Here is the method:
(§1) FIG. 9: Analgesic effect of Serodolin in the acetic acid-induced writhing test. In this test, nociception was induced by an intraperitoneally injection (ip) of 0.1 ml/10 g acid acetic solution (10 ml/kg) in peripheral origin. Serodolin at increasing dosage was administrated by oral (po), intravenous (iv) or subcutaneous (sc) route before acid acetic injection (upper panel). Positive control animals were pretreated morphine (3 mg/kg, sc) 10 minutes before acetic acid. Five minutes after i.p. injection of acetic acid the number of writhing was recorded for 10 minutes. Data mean±SEM of values obtained from a representative experiment (n=10 animals/group). ****p<0.0001 ***p<0.001 **p<0.01 *p<0.05 as compared with the control group (Vh).
as §1, with “16:” for “9:”, “MOA51” for “Serodolin”, “i.p.injection” for “i.p. injection”, “animals/group).” for “animals/group). ****p<0.0001 ***p<0.001”, “**p<0.01” for “**p<0.01 *p<0.05”
Writhing tests: Mice (25-35 g). Groups of mice (n=10) received by oral, subcutaneous or intravenous route Serodolin at different doses (0.1-10 mg/kg) one hour before intraperitoneally injection of 1% acetic acid in a volume of 10 ml/kg. Control group received vehicle (10 ml/kg, solution of 20% DMSO and 5% tween 80). The test was carried out 5 minutes later after acid acetic injection. The characteristic writhing responses have been observed individually and counted for 10 minutes.
Analgesic activity was first evaluated using the acetic acid abdominal constriction test (writhing test), a chemical model of visceral pain. We evaluated the dose-response effect of Serodolin following single oral, intravenous and subcutaneous administration of the compound one hour before injection of acetic acid.
Analgesic activity was evaluated using the acetic acid abdominal constriction test (writhing test), a chemical model of visceral pain. We evaluated the dose-response effect of MOA51 following single oral, intravenous and subcutaneous administration of the compound one hour before injection of acetic acid. MOA51 administered by the oral route induced statistically significant dose-dependent decreases in the number of writhings at and above the dose of 1 mg/kg. By the intravenous route, MOA51 induced dose-dependent decreases in the number of writhings at and above the dose of 0.1 mg/kg.

The test system of the next experiment is mouse. Kind of experiment: Effect on body temperature. Format: in vivo. The text has this: FIG. 13: Evaluation of the effect of Serodolin on body temperature.
FIG. 17: Evaluation of the effect of MOA51 on body temperature. Results expressed in ° C.
The time course of the effect of Serodolin on the body temperature has been evaluated in the mouse following intravenous administration.

In another experiment the test system is Sprague-Dawley male rats. The experiment is described as follows: Formalin induced inflammatory pain model. Format: in vivo. As to conditions: single s.c., Serodolin 10 mg/kg, MOA51 1 mg/kg, morphine. Here is the method: FIG. 18: Effect of a single administration of Serodolin (AIC01) or MOA51 in the formalin test in rats. Effect of a single subcutaneous administration of Serodolin (AIC01) or MOA51 in the formalin test in rats. In this test, Sprague-Dawley male rats received unilateral injection of a 2.5% formalin solution (50 μl) into the plantar aspect of the hindpaw on testing day (i.e. D0). Control group received Vehicle (20% DMSO/5% Tween 80/NaCl). Serodolin was subcutaneously (sc) administrated at 10 mg/kg and MOA51 at 1 mg/kg. Positive control animals were treated with morphine (3 mg/kg, sc). Paw licking time was measured. Results are expressed as mean±s.e.m. Percentage are expressed as decreased as compared to the vehicle-treated group and represented as figure (B). ***: p<0.001 as compared to the vehicle-treated group, Bonferroni's test after significant Two-way Repeated Measures ANOVA. NS: Non-significant.
Sprague-Dawley male rats (n=10 rats per group) received unilateral injection of a 2.5% formalin solution (50 μl) into the plantar aspect of the hindpaw on testing day (i.e. D0). Experience was separated into 4 groups of animals. Formalin animals+vehicle-treated group; […]—Formalin animals+Sponsor's Serodolin (10 mg/kg), s.c.—Formalin animals+Sponsor's MOA51 (1 mg/kg), s.c.—Formalin animals+internal validator-treated group (Morphine at 4 mg/Kg, s.c.). Single subcutaneous administration of the Vehicle and Sponsor's Compound 30 min (or other timing depending on Sponsor's design) before formalin injection on testing day (i.e. D0)/Subcutaneous administration of Morphine 30 min before formalin injection on testing day (i.e. D0). Hindpaw licking time recorded in consecutive 5 minutes periods from 0 to 5 minutes (early phase) and 17 to 27 minutes (late phase) after formalin injection.
We evaluated the effect of Serodolin as well as MOA51 in rats in the formalin test, an acute and tonic pain model based on the use of a chemical stimulus. Subcutaneous injection of formalin into the right hindpaw produces a biphasic painful response of increasing and decreasing intensity for about 30 minutes after the injection. […] Although not significant, Serodolin, MOA51 and morphine have an inhibitory effect (−40%, −35% and −57% respectively) during the early phase.

A further experiment deals with C57BL/6 mice. The experiment is described as follows: Spared Nerve Injury (SNI) neuropathic pain model, Von Frey. As to conditions: s.c.

Method for C57BL/6 mice: Pregabalin, vehicle or compounds solutions are subcutaneously administrated for 8 consecutive days. • (A) Mechanical response threshold after the first administration (D+10). […] Positive control animals were treated with Pregabalin (5 mg/kg, sc). Statistical differences are indicated compared to vehicle group (Two-way RM ANOVA followed by Bonferroni post-hoc test: ***p<0.001, ** p<0.01, * p<0.05). […] Positive control animals were treated with Pregabalin (5 mg/kg, sc). Statistical differences are indicated compared to vehicle group (Two-way RM ANOVA followed by Bonferroni post-hoc test: ***p<0.001, ** p<0.01, * p<0.05). […] (Two-way RM ANOVA followed by Bonferroni post-hoc test: ***p<0.001, ** p<0.01, * p<0.05)
MOA51 and Serodolin (AIC01) compounds were diluted in NDT solution (NaCl 0.9%—DMSO 20%—Tween80 5%). […] AIC01 was resuspended at 0.5 mg/mL and administrated at a ratio of 100 μl per 10 g (dose of 5 mg/kg).
Experiment starts with 8 weeks old male C57B16J mice (from Charles River). Study was performed on 40 mice (2 mice were excluded during the study due to health guidelines) divided in 4 randomized groups. • Group A: s.c. injection at 5 mg/kg of pregabalin. • Group B: s.c. injection at 0.5 mg/kg of MOA51. • Group C: s.c. injection at 5 mg/kg of Serodolin (AIC01). • Group D: s.c. injection of NDT solution (referred as Vehicle hereafter).
Compounds solutions, pregabalin and vehicle were subcutaneously administrated (100 μl/10 g) for 9 consecutive days, starting 10 days after surgery. Ligature and transection of the common peroneal and tibial distal branches of the sciatic nerve was made leaving the sural branch intact. 7 days post-surgery, a decrease of threshold response to Von Frey filaments of ipsilateral hind-paw was observed corresponding to neuropathic pain apparition (mechanical allodynia). Mechanical threshold response of mice were measured with calibrated Von Frey filaments using the up/down method. Experimenter was blind to mice treatment. Measures are performed as follow: one baseline measure before surgery, one measure at D+10, D+12, D+14, D+16 and D+18 before drug's administration, and 1 h, 2 h post-drug administration. A supplementary measure 4 h post-drug administration was performed at D+10 and D+18.
Two-way RM ANOVA (followed by Bonferroni post-hoc test) was used to analysed time course response at D+10 and D+18. Area under the curve was determined with the 1 h and 2 h post-drug administration measures to investigated tolerance of repeated administration of compounds

Regarding `O=C(c1ccc(F)cc1)C1CCN(Cn2c(=O)[nH]c3ccccc32)CC1` [MOA51], the “ERK phosphorylation in HEK-293 mock cells” value with HEK-293 mock cells was “neither Serodolin, nor MOA-51 were able to induce ERK phosphorylation”. Moreover, the “writhings at the top dose, intravenous route” value with mice (10 mg/kg, intravenous) is “no further acetic acid-induced writhings were observed”. Also, the “dose giving decrease in number of writhings, intravenous route” value in the experiment with mice (intravenous, one hour before acetic acid) is at least 0.1 mg/kg. Moreover, the “dose giving significant decrease in number of writhings, oral route” value in the experiment with mice (oral, one hour before acetic acid) is listed as at least 1 mg/kg. For the same molecule, the “dose giving significant decrease in number of writhings, subcutaneous route” value in the experiment with mice (s.c., one hour before acetic acid) was at least 1 mg/kg. Further, the “writhings at the top dose, subcutaneous route” value with mice (top dose, subcutaneous) is given as “absence of acetic acid-induced writhings”. Moreover, the “decrease in body temperature, Emax” value is −2.3 °C with mouse (0.1 mg/kg, at 30 min, not statistically significant); −5.4 °C in the experiment on mouse (0.3 mg/kg, at 30 min); −7.2 °C in the experiment with mouse (1 mg/kg, at 180 min). Moreover, in the experiment with Sprague-Dawley male rats (0 to 5 minutes, not significant), the “inhibitory effect on paw licking, early phase” value is listed as −35%. Besides, the “inhibition of licking, late phase” value in the experiment on Sprague-Dawley male rats (17 to 27 minutes) is on record as −78%. Moreover, the “tolerance after repetitive administration (AUC)” value in the experiment with C57BL/6 mice (9 consecutive days) is recorded as “didn't present any tolerance effect after repetitive administration”. Moreover, the “mechanical response threshold vs vehicle” value with C57BL/6 mice (first (D+10) and last (D+18) administration, 1 h and 2 h) is listed as “significant increase in the mechanical threshold response”.
